Drawing on US12247010B2, “Tubulin inhibitors” (LIN BIOSCIENCE PTY LTD., priority 2017, dated 2025), this text covers IC50 for 18 compounds.

For the experiment, the system named is U87MG cells. The experiment can be described thus: Cytotoxicity assay (cell viability, CellTiter 96 Aqueous MTS). Type of experiment: cell-based. The following applies: Homo sapiens, U-87 MG, 72 h, 72 hours incubation, starting concentration 50 uM, 9 point half log dilution, average where tested repeatedly. Put shortly:
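U87MG cells plated at 7×10^3 cells/well overnight, then treated 72 h with 9-point half-log dilutions from a 50 uM starting concentration. Viability measured with CellTiter 96 Aqueous MTS; IC50 calculated from viability.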

The term pIC50 denotes the negative decadic logarithm of the IC50, by convention in mol/L.

pIC50: −log10 of the molar value. Where only a bound is given, the exact number is not on record here.

`O=C(CCCc1ccc(Cc2ccccc2)cc1)Nc1cccnc1` [Compound 186, 4-(4-benzylphenyl)-N-(pyridin-3-yl)butanamide] had a pIC50 of less than 5.30.
To `O=C(CCCc1ccc(-c2ccc(C(F)(F)F)cc2F)cc1)Nc1cccnc1` [Compound 189, 4-(2′-fluoro-4′-(trifluoromethyl)-[1,1′-biphenyl]-4-yl)-N-(pyridin-3-yl)butanamide] belongs 5.30 to 6.00; to `O=C(CCCc1ccc(-c2cc3cccnc3cc2F)cc1)Nc1cccnc1` [Compound 190, 4-(4-(7-fluoroquinolin-6-yl)phenyl)-N-(pyridin-3-yl)butanamide], more than 6.30; to `Cc1nn(C)c2ccc(-c3ccc(CCCC(=O)Nc4cccnc4)cc3)cc12` [Compound 191, 4-(4-(1,3-dimethyl-1H-indazol-5-yl)phenyl)-N-(pyridin-3-yl)butanamide], 5.30 to 6.00.
To `O=C(CCCc1ccc(-c2ccc3nccnc3c2)cc1)Nc1cccnc1` [Compound 192, N-(pyridin-3-yl)-4-(4-(quinoxalin-6-yl)phenyl)butanamide] belongs 5.30 to 6.00; to `O=C(CCCc1ccc(-c2cnn(Cc3ccccc3)c2)cc1)Nc1cccnc1` [Compound 193, 4-(4-(1-benzyl-1H-pyrazol-4-yl)phenyl)-N-(pyridin-3-yl)butanamide], less than 5.30.
As to `O=C(CCCc1ccc(-c2ccc3[nH]cnc3c2)cc1)Nc1cccnc1` [Compound 195, 4-(4-(1H-benzo[d]imidazol-5-yl)phenyl)-N-(pyridin-3-yl)butanamide], the pIC50 was 6.00 to 6.30.
To `O=C(CCCc1ccc(-c2ccc3c(c2)CCC(=O)N3)cc1)Nc1cccnc1` [Compound 196, 4-(4-(2-oxo-1,2,3,4-tetrahydroquinolin-6-yl)phenyl)-N-(pyridin-3-yl)butanamide] belongs more than 6.30; to `O=C(CCCc1ccc(-c2ccc3nccn3c2)cc1)Nc1cccnc1` [Compound 197, 4-(4-(imidazo[1,2-a]pyridin-6-yl)phenyl)-N-(pyridin-3-yl)butanamide], less than 5.30.
To `O=C(CCCc1ccc(-c2ccc(-n3cccn3)cc2)cc1)Nc1cccnc1` [Compound 198, 4-(4′-(1H-pyrazol-1-yl)-[1,1′-biphenyl]-4-yl)-N-(pyridin-3-yl)butanamide] belongs 6.00 to 6.30; to `Cc1ccc2cc(-c3ccc(CCCC(=O)Nc4cccnc4)cc3)ccc2n1` [Compound 199, 4-(4-(2-methylquinolin-6-yl)phenyl)-N-(pyridin-3-yl)butanamide], 6.00 to 6.30.
Regarding `O=C(CCCc1ccc(-c2cc(C(=O)N3CCOCC3)ccc2F)cc1)Nc1cccnc1` [Compound 200, 4-(2′-fluoro-5′-(morpholine-4-carbonyl)-[1,1′-biphenyl]-4-yl)-N-(pyridin-3-yl)butanamide], the pIC50 is less than 5.30.
Regarding `O=C(CCCc1ccc(-c2ccncc2)cc1)Nc1cccnc1` [Compound 202, N-(pyridin-3-yl)-4-(4-(pyridin-4-yl)phenyl)butanamide], the pIC50 is less than 5.30.
To `Cc1nn(C)cc1-c1ccc(CCCC(=O)Nc2cccnc2)cc1` [Compound 203, 4-(4-(1,3-dimethyl-1H-pyrazol-4-yl)phenyl)-N-(pyridin-3-yl)butanamide] belongs less than 5.30; to `O=C(CCCc1ccc(-c2nnco2)cc1)Nc1cccnc1` [Compound 204, 4-(4-(1,3,4-oxadiazol-2-yl)phenyl)-N-(pyridin-3-yl)butanamide], 5.30 to 6.00; to `O=C(CCCc1ccc(-c2cnc(N3CCOCC3)nc2)cc1)Nc1cccnc1` [Compound 205, 4-(4-(2-morpholinopyrimidin-5-yl)phenyl)-N-(pyridin-3-yl)butanamide], less than 5.30.
Turning to `O=C(CCCc1ccc(-c2ccc3[nH]ncc3c2)cc1)Nc1cccnc1` [Compound 206, 4-(4-(1H-indazol-5-yl)phenyl)-N-(pyridin-3-yl)butanamide], the pIC50 is more than 6.30.
To `O=C(CCCc1ccc(-c2ccc3[nH]c(=O)oc3c2)cc1)Nc1cccnc1` [Compound 208, 4-(4-(2-oxo-2,3-dihydrobenzo[d]floxazol-6-yl)phenyl)-N-(pyridin-3-yl)butanamide] belongs 5.30 to 6.00.
